Consider eight compounds from PubChem BioAssay (NCI).

Test systems include BT-549 breast; HCC-2998 colon; HCT-15 colon; HOP-62 NSCLC; HT29 colon; IGROV1 ovarian; MDA-MB-435; NCI-H23 lung; OVCAR-3 ovarian; UACC-62 melanoma.
What all share (experiment): DTP human tumour cell line panel, 48 h

Molecules are shown by their SMILES.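 Interpolation was linear, between the two tested concentrations surrounding the appropriate level; five concentrations were tested over 48 hours in 96-well plates. At the GI50, growth is halved. Definition used: TGI = concentration required for complete inhibition of growth.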

Turning to `CN1CCN(C(=O)/C=C/c2ccc([N+](=O)[O-])o2)CC1`, the GI50 was 10.1 µM in the test on BT-549 breast; 18.2 µM with HCC-2998 colon; 3.14 µM in the test on HCT-15 colon; 17.1 µM with HOP-62 NSCLC; 9.81 µM in the test with HT29 colon; 10.8 µM with IGROV1 ovarian. Further, the GI50 in the test on MDA-MB-435 was 3.12 µM; with NCI-H23 lung, 8.49 µM; with OVCAR-3 ovarian, 12.9 µM; in the test on UACC-62 melanoma it was 11.1 µM. In addition, the TGI was 21.8 µM in the test on BT-549 breast; 38.1 µM with HCC-2998 colon; 14.9 µM in the test with HCT-15 colon; 39.9 µM in the test on HOP-62 NSCLC; 37 µM in the test on HT29 colon; 36.4 µM in the test on IGROV1 ovarian. Further, the TGI in the test with MDA-MB-435 worked out at 14.9 µM; with NCI-H23 lung, 22 µM; with OVCAR-3 ovarian, 26.2 µM; with UACC-62 melanoma, 23.4 µM.

As to `COc1cc(/C=C/C(=O)c2nc3cc(F)ccc3nc2C)cc(OC)c1OC`, the GI50 is 8.12 µM in the test with BT-549 breast; above 100 µM with HCC-2998 colon; 2.94 µM with HCT-15 colon; above 27.8 µM in the test with HOP-62 NSCLC; 3.75 µM with HT29 colon; 11.4 µM in the test with IGROV1 ovarian. In addition, the GI50 was 3.55 µM in the test on MDA-MB-435, above 47.9 µM in the test with NCI-H23 lung, 2.59 µM with OVCAR-3 ovarian and 5.57 µM in the test with UACC-62 melanoma. For the same compound, the TGI with BT-549 breast, in the test on HCC-2998 colon, with HCT-15 colon, in the test with HOP-62 NSCLC, in the test with HT29 colon and with IGROV1 ovarian was above 100 µM in each case. For the same compound, the TGI with MDA-MB-435 is above 100 µM; in the test on NCI-H23 lung it was above 100 µM; in the test with OVCAR-3 ovarian, above 28.1 µM; in the test with UACC-62 melanoma, above 100 µM.

With `CC1(C)CC2=NO[Se]3=C2C(=NO3)C1`, the TGI with BT-549 breast amounted to 7.28 µM; in the test on HCC-2998 colon it was 16.8 µM; in the test on HCT-15 colon, 11.5 µM; with HOP-62 NSCLC, 10.8 µM; with HT29 colon, 10.1 µM; in the test with IGROV1 ovarian, 6.43 µM. The TGI in the test with MDA-MB-435 was found to be 15.5 µM; with NCI-H23 lung it was 5.65 µM; in the test with OVCAR-3 ovarian, 5.37 µM; in the test with UACC-62 melanoma, 6.63 µM.

Turning to `O=C1NC(=O)N(S(=O)(=O)c2cc(C(=O)Nc3ccc(Cl)cc3)c(Cl)cc2S)S(=O)(=O)N1`, the GI50 is 20.5 µM in the test on BT-549 breast; 12.9 µM in the test with HCC-2998 colon; 18.9 µM in the test with HCT-15 colon; 18.3 µM in the test with HOP-62 NSCLC; 23.8 µM with HT29 colon; 24.1 µM in the test on IGROV1 ovarian. Besides, the GI50 in the test on MDA-MB-435 was 18.5 µM; with NCI-H23 lung, 18.5 µM; with OVCAR-3 ovarian it was 19.2 µM; with UACC-62 melanoma, 6.67 µM. Further, the TGI was 45.7 µM in the test with BT-549 breast; 30 µM in the test with HCC-2998 colon; 36.5 µM in the test on HCT-15 colon; 37.4 µM in the test on HOP-62 NSCLC; above 100 µM in the test with HT29 colon; 51.6 µM with IGROV1 ovarian. Further, the TGI was found to be 34.3 µM in the test with MDA-MB-435, 34.3 µM in the test on NCI-H23 lung, 36.1 µM in the test on OVCAR-3 ovarian and 23.6 µM in the test on UACC-62 melanoma.

Take `CCOC(=O)C#Cc1c(C(=O)OCC)nnn1[C@@H]1O[C@H](COC)[C@@H](OC)[C@H]1OC`: the GI50 in the test with BT-549 breast was 13.1 µM; with HCC-2998 colon it was 18 µM; in the test with HCT-15 colon, 2.56 µM; with HOP-62 NSCLC it was 25.7 µM; with HT29 colon it was 2.86 µM; in the test on IGROV1 ovarian, 18.4 µM. In addition, the GI50 in the test with MDA-MB-435 was 12.1 µM; with NCI-H23 lung, 12.3 µM; in the test with OVCAR-3 ovarian it was 1.72 µM; with UACC-62 melanoma, 2.19 µM. The TGI with BT-549 breast stood at 26 µM; in the test on HCC-2998 colon it was 32.8 µM; in the test with HCT-15 colon it was 6.66 µM; in the test with HOP-62 NSCLC, 63.1 µM; with HT29 colon, 6.49 µM; in the test on IGROV1 ovarian it was 39.6 µM. Also, the TGI in the test with MDA-MB-435 worked out at 24.5 µM; in the test with NCI-H23 lung, 26.3 µM; with OVCAR-3 ovarian it was 3.25 µM; with UACC-62 melanoma it was 5.41 µM.

Regarding `O=C(O)CSc1cc(NS(=O)(=O)c2ccc(Br)cc2)c2ccccc2c1O`, the GI50 in the test on BT-549 breast is 16.2 µM; in the test on HCC-2998 colon, 18.4 µM; with HCT-15 colon, 13.3 µM; in the test with HOP-62 NSCLC, 17.9 µM; in the test with HT29 colon, 18.1 µM; in the test on IGROV1 ovarian it was 3.03 µM. For the same compound, the GI50 with MDA-MB-435 was 1.88 µM; in the test with NCI-H23 lung, 7.25 µM; in the test with OVCAR-3 ovarian it was 2.58 µM; with UACC-62 melanoma, 7.81 µM. Also, the TGI in the test with BT-549 breast came to 30.5 µM; in the test with HCC-2998 colon it was 33.9 µM; in the test on HCT-15 colon, 30.7 µM; with HOP-62 NSCLC it was 31.9 µM; with HT29 colon, 78.1 µM; with IGROV1 ovarian it was 8.76 µM. The TGI with MDA-MB-435 was 3.41 µM; in the test with NCI-H23 lung, 38 µM; in the test with OVCAR-3 ovarian it was 9.09 µM; with UACC-62 melanoma it was 23.4 µM.

For `FC(F)(F)c1cccc(CNC2CCN(CCc3ccccc3)CC2)c1`, the GI50 in the test on BT-549 breast was 24.8 µM; in the test on HCC-2998 colon, 17.7 µM; with HCT-15 colon, 23.3 µM; in the test on HOP-62 NSCLC it was 37.5 µM; in the test on HT29 colon, 13.5 µM; in the test on IGROV1 ovarian, 55.9 µM. The GI50 is 15.9 µM in the test on MDA-MB-435, 51.8 µM in the test with NCI-H23 lung, 32.6 µM in the test on OVCAR-3 ovarian and 13.9 µM in the test on UACC-62 melanoma. In addition, the TGI in the test on BT-549 breast was above 100 µM; with HCC-2998 colon it was 37.2 µM; in the test with HCT-15 colon, above 100 µM; with HOP-62 NSCLC, above 100 µM; in the test with HT29 colon, 46.1 µM; in the test on IGROV1 ovarian it was above 100 µM. In addition, the TGI in the test on MDA-MB-435 is 30.8 µM; in the test with NCI-H23 lung, above 100 µM; in the test with OVCAR-3 ovarian, above 100 µM; in the test on UACC-62 melanoma, 30.7 µM.

In the case of `CN(C)c1ccc(/C=N/N=C(\C#N)[S][Sn]([Cl])([c]2ccccc2)[c]2ccccc2)cc1`, the GI50 with BT-549 breast is 1.57 µM; in the test on HCC-2998 colon, 1.28 µM; in the test on HCT-15 colon, 1.26 µM; in the test on HOP-62 NSCLC, 2.63 µM; in the test on HT29 colon, 2.08 µM; in the test with IGROV1 ovarian it was 1.99 µM. Moreover, the GI50 in the test with MDA-MB-435 is 1.5 µM; in the test on NCI-H23 lung, 1.44 µM; with OVCAR-3 ovarian, 1.3 µM; with UACC-62 melanoma, 1.41 µM. For the same compound, the TGI in the test on BT-549 breast was 3.04 µM; with HCC-2998 colon, 2.61 µM; in the test on HCT-15 colon, 2.73 µM; in the test with HOP-62 NSCLC, 6.02 µM; in the test on HT29 colon, 4.18 µM; with IGROV1 ovarian, 4.63 µM. For the same compound, the TGI in the test on MDA-MB-435 was determined as 3.01 µM; in the test on NCI-H23 lung, 3.21 µM; in the test with OVCAR-3 ovarian, 2.59 µM; in the test on UACC-62 melanoma it was 2.87 µM.

In general, GI50 refers to the concentration that inhibits growth by half. As a reminder, the TGI is the concentration giving total growth inhibition. A high value points to lower sensitivity of the cells.
